Source: ChEMBL document CHEMBL1201862, “PubChem BioAssay data set” (2004)
Active and inactive are the calls of the source.

Tests used:
[1] = molecular target: Cytochrome P450 2C19 (Homo sapiens, UniProt P33261); test: Cytochrome panel assay with activity outcomes. Panel member name: p450-cyp2c19 Compounds with AC50 equal or less than 10 uM are considered active; assay type: functional
[2] = molecular target: T1, Lysosomal acid glucosylceramidase (Homo sapiens, UniProt P04062); test: Dose response cell-based high throughput screening assay to identify enhancers of beta-glucosidase activity. [Related pubchem assays: 784 ]; assay type: functional
T1 sequence (P04062 whole entry): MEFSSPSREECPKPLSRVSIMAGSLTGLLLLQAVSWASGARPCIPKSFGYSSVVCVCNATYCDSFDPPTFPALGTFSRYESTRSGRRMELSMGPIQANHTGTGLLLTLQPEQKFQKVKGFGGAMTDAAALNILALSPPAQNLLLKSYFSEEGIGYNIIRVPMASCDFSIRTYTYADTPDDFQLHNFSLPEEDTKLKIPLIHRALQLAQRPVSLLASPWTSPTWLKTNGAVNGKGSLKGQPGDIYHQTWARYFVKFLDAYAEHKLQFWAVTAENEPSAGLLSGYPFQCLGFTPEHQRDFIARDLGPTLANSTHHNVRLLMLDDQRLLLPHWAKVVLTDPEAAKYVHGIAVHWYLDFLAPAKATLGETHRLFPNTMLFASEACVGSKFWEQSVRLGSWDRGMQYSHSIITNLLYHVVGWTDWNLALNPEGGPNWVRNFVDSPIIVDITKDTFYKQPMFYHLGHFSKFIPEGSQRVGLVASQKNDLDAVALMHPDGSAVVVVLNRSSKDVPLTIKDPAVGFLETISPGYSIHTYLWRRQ

[3] = molecular target: T2, Ubiquitin-conjugating enzyme E2 N (Homo sapiens, UniProt P61088); assay type: functional;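 also: Dose-response confirmation in a TR-FRET assay detecting UBC13-driven polyubiquitin chain formation, inhibition measured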
T2 sequence (P61088 whole entry): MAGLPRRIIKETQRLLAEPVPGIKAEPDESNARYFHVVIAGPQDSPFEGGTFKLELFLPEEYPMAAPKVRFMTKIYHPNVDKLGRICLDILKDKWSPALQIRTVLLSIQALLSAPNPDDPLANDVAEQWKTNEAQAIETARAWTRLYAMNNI

[4] = molecular target: Peroxisome proliferator-activated receptor gamma/Nuclear receptor coactivator 1 (Homo sapiens, UniProt P37231); test: TR-FRET dose response biochemical High Throughput Screening assay for agonists of the steroid receptor coactivator 1 (SRC-1) recruitment by the peroxisome proliferator-activated receptor gamma (PPAR gamma): non-selective agonists. [Related pubchem assays (depositor defined):AID1300, AID1808, AID504735, AID631]; assay type: protein assay
[5] = molecular target: Peroxisome proliferator-activated receptor gamma/Nuclear receptor coactivator 2 (Homo sapiens, UniProt P37231); test: (§1) TR-FRET dose response biochemical High Throughput Screening assay for agonists of the steroid receptor coactivator 2 (SRC-2) recruitment by the peroxisome proliferator-activated receptor gamma (PPAR gamma): non-selective agonists. [Related pubchem assays: 1297, 1032 ]; assay type: functional
[6] = molecular target: Peroxisome proliferator-activated receptor gamma/Nuclear receptor coactivator 3 (Homo sapiens, UniProt P37231); test: as §1, with “3 (SRC-3)” for “2 (SRC-2)”, “1301 (Confirmation screen.), 1048 (Primary screen.)]” for “1297, 1032 ]”; assay type: functional
[7] = molecular target: Cytochrome P450 3A4 (Homo sapiens, UniProt P08684); settings: Potency;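 also: confirmatory qHTS run detecting inhibitors and substrates of CYP3A4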
[8] = molecular target: T3, Short transient receptor potential channel 4 (Mus musculus, UniProt Q9QUQ5); test: block of DAMGO-driven TRPC4 calcium entry – cell-based, HEK293 TRPC4/mu-opioid, Fluo-4 calcium, dose response (AID 434942); assay type: functional;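 also: potency of inhibitors blocking the TRPC4 calcium response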
T3 sequence (Q9QUQ5 whole entry): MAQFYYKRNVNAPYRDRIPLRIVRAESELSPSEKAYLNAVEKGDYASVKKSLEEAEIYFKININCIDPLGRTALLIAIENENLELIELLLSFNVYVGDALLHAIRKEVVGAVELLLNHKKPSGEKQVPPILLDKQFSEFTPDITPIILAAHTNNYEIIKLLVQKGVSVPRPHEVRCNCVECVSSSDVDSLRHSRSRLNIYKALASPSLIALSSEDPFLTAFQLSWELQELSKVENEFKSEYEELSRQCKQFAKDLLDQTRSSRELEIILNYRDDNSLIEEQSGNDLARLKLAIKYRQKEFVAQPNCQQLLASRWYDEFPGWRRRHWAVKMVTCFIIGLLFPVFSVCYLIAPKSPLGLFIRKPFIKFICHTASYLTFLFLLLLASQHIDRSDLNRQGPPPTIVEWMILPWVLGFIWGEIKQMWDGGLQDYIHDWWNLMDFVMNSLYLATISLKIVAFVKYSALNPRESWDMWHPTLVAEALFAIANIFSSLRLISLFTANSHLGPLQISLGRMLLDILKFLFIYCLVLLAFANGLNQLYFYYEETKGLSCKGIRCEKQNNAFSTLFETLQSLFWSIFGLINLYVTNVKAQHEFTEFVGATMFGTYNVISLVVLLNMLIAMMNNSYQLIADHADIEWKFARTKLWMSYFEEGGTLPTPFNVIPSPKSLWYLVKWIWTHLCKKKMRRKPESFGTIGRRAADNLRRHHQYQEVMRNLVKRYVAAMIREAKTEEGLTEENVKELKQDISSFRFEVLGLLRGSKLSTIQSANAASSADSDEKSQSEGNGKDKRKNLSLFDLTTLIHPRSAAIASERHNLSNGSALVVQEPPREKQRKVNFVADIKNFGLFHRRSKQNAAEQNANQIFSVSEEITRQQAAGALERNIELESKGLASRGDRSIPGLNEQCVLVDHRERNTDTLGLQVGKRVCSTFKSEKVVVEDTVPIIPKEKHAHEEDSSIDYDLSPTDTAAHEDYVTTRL

[9] = molecular target: T4, Heat shock factor protein 1 (Mus musculus, UniProt P38532); test: decrease of HSF1-responsive luciferase luminescence – cell-based, NIH3T3, dose retest, confirmation (AID 2382); assay type: functional;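 also: NIH3T3 fibroblasts with HSF1-driven luciferase reporter stressed by proteasome inhibitor MG132; luminescence from HSF1-driven luciferase expression after 8 hours of MG132 stress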
T4 sequence (P38532 whole entry): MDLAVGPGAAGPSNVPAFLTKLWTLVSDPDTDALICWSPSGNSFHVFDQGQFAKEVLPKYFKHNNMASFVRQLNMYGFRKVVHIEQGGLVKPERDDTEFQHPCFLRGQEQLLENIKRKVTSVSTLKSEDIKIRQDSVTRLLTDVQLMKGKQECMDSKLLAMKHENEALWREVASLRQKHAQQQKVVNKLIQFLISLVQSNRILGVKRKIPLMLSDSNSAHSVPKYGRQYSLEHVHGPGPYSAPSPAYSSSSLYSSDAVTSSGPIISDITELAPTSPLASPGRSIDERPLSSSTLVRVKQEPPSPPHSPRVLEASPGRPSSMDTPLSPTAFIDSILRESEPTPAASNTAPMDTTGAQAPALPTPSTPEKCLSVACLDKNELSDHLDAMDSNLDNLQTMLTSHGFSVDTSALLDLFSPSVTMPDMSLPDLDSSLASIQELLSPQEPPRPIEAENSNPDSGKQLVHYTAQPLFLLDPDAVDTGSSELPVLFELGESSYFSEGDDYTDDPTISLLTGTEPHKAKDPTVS

[10] = molecular target: Nonstructural protein 1 (Influenza A virus, UniProt Q194T2); assay type: functional, Influenza A virus (A/California/07/2009(H1N1))
[11] = molecular target: T5, DNA repair protein RAD52 homolog (Homo sapiens, UniProt P43351); assay type: functional, biochemical
T5 sequence (P43351 whole entry): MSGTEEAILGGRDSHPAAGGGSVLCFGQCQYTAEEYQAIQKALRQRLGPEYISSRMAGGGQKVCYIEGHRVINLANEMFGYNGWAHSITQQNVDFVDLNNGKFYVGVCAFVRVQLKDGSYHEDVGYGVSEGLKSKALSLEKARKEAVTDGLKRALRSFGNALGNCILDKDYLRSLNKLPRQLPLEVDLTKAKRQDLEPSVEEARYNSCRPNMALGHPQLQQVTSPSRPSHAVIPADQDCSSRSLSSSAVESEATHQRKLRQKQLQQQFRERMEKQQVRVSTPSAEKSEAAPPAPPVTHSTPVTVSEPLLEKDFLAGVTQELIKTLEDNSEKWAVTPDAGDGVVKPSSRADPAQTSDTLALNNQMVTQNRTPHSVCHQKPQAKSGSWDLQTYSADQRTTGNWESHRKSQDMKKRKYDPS

[12] = HEK-293T viability loss after treatment – luminescence, T-cell screen hits, cytotoxicity control for TCR NF-kB inhibitor project, dose response (AID 489026); assay type: functional, cell-based;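 also: cells exposed to compound about 14 hours before the viability readout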
[13] = molecular target: SUMO-activating enzyme (Homo sapiens, UniProt Q9UBT2); test: blockers of SAE1/SAE2–UBC9 SUMO transfer – biochemical, HTRF, uHTS, primary screen (AID 2006); assay type: protein-complex assay
[14] = molecular target: Trypsin (Sus scrofa, UniProt P00761); test: trypsin protease activity blockade – biochemical, quenched peptide fluorescence, cherry-pick, selectivity assay for Rce1 protease inhibitor project, dose response (AID 488789)
[15] = molecular target: T6, Calpain-2 catalytic subunit (Sus scrofa, UniProt P43367); test: m-calpain protease blockers, concentration series – biochemical, fluorogenic peptide substrate, dose response (AID 1420); assay type: functional
T6 sequence (P43367 whole entry): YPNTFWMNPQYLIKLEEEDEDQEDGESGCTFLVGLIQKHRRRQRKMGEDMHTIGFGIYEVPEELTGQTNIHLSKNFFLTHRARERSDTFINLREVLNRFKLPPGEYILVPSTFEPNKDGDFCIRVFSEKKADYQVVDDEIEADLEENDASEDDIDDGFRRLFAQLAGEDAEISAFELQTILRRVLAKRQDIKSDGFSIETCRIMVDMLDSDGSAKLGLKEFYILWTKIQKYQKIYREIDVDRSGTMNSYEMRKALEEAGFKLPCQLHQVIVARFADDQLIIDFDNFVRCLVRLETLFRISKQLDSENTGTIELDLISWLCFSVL

Cytochrome P450 3A4, sequence (P08684 whole entry): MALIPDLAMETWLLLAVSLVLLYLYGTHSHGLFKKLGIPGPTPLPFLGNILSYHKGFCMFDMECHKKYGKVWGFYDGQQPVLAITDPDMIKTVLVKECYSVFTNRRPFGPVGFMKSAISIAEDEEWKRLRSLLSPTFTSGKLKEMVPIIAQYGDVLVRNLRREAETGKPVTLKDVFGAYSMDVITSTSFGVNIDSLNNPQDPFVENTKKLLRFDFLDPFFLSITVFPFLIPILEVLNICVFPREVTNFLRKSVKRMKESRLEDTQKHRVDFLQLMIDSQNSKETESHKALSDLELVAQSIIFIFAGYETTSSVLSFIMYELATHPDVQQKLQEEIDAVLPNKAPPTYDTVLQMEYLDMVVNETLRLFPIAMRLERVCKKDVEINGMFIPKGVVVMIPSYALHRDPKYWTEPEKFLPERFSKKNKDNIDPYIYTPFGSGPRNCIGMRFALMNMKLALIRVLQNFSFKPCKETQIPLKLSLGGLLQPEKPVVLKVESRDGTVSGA
Peroxisome proliferator-activated receptor gamma/Nuclear receptor coactivator 1, sequence (P37231 whole entry): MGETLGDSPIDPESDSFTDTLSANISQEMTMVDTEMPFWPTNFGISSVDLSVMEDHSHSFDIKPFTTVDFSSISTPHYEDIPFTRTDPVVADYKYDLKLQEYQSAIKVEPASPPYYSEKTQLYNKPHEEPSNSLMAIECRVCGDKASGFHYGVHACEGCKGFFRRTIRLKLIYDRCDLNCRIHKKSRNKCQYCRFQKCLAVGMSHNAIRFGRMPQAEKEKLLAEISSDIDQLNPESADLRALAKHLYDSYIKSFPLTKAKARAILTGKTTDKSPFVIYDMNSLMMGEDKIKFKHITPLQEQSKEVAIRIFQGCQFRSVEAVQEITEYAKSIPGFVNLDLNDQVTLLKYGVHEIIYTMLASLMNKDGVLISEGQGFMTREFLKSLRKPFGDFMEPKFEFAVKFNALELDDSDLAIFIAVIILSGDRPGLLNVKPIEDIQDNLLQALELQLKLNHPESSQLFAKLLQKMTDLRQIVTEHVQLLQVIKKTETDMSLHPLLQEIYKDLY
Peroxisome proliferator-activated receptor gamma/Nuclear receptor coactivator 1, sequence (Q15788 whole entry, further chain): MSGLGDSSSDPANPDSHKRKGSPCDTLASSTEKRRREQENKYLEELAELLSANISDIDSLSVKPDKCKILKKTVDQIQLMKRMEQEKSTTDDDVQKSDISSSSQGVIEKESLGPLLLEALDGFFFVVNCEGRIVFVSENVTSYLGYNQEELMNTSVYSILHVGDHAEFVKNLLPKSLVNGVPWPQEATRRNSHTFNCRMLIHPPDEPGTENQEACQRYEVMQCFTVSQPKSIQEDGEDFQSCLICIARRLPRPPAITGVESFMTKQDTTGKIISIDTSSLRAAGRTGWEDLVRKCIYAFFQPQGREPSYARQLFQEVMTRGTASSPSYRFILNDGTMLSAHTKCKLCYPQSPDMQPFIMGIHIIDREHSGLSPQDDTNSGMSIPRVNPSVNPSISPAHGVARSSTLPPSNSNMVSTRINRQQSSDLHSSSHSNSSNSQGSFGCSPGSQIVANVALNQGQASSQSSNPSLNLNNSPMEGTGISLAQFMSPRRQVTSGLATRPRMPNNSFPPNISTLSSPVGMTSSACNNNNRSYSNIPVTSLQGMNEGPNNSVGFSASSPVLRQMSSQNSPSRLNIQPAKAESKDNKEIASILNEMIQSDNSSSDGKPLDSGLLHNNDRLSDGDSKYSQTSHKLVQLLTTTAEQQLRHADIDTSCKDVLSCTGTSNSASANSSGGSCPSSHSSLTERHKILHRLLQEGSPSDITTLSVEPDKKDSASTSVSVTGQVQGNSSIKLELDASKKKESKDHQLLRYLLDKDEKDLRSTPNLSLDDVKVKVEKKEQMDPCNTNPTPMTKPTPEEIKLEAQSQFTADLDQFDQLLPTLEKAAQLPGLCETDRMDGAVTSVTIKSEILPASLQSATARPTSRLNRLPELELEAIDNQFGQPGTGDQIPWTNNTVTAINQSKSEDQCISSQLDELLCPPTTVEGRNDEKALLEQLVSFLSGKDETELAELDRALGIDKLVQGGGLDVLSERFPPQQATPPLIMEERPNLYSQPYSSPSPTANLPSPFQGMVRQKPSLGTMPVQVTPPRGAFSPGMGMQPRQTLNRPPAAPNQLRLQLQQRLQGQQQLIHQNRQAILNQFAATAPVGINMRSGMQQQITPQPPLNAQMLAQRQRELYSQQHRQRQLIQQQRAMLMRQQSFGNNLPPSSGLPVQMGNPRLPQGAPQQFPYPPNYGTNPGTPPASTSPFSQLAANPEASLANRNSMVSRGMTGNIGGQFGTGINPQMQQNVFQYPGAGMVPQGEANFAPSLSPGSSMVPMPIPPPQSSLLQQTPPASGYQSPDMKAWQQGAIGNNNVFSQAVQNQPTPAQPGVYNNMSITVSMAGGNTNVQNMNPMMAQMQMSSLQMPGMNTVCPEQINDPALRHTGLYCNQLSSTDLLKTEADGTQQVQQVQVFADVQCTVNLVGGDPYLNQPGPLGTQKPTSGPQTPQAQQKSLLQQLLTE
Peroxisome proliferator-activated receptor gamma/Nuclear receptor coactivator 2, sequence (P37231 whole entry): as the sequence (P37231 whole entry) above
Peroxisome proliferator-activated receptor gamma/Nuclear receptor coactivator 2, sequence (Q15596 whole entry, further chain): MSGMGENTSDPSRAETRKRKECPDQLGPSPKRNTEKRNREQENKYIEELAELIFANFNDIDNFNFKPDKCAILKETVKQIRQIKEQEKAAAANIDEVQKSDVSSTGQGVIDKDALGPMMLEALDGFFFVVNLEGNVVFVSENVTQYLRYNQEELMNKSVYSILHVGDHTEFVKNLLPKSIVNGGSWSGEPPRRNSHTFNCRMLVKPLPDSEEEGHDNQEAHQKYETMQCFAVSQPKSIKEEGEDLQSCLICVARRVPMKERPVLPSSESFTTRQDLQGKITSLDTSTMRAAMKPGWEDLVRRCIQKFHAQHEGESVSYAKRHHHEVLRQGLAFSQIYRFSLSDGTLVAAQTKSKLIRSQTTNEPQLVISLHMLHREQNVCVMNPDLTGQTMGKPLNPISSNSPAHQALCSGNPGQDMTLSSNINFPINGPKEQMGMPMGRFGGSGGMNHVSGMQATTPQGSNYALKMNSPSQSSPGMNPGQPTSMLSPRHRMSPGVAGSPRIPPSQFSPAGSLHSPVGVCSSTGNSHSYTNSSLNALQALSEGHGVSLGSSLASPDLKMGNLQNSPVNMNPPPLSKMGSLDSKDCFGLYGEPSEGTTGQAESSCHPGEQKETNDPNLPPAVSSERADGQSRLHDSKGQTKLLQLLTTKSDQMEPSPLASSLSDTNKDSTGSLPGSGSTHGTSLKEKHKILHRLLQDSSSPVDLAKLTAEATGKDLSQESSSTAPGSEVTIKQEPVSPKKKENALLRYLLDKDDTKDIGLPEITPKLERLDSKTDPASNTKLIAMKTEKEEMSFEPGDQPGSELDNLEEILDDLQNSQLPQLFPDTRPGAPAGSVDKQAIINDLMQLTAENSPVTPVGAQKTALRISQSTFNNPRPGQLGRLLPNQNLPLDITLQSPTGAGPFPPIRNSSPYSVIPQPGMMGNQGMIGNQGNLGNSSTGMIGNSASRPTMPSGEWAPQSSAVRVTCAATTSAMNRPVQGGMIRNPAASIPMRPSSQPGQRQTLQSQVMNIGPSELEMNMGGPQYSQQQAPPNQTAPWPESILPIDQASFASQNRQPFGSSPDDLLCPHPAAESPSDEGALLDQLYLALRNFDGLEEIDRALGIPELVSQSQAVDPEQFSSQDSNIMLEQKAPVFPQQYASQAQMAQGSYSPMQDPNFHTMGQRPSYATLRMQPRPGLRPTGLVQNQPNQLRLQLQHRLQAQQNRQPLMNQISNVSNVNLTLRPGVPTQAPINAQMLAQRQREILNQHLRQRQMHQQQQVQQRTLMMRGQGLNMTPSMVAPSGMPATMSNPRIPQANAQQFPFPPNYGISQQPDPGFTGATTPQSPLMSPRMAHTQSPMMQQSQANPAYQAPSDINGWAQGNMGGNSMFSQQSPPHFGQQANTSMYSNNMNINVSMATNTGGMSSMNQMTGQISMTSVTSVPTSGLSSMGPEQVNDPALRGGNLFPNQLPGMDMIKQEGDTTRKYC
Nonstructural protein 1, sequence (Q194T2 whole entry): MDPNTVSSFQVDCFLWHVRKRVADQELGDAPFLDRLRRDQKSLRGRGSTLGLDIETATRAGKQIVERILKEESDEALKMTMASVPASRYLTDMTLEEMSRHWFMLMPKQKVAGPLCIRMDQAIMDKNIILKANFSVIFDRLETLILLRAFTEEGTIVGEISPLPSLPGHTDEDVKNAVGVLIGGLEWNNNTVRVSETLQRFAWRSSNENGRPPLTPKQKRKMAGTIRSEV
Trypsin, sequence (P00761 whole entry): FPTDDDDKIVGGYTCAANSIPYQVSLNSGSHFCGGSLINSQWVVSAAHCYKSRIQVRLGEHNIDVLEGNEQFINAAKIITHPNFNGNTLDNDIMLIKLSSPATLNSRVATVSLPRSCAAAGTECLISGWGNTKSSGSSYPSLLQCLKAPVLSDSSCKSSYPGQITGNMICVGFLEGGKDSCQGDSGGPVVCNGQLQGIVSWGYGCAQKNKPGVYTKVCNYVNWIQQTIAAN

Cc1nonc1NC(=O)OCCN1CCOC1=O
AC50 [1]: inconclusive
EC50 [2]: > 50 µM (not active)

Cc1ccc(-c2csc(N3CCN(c4cc5c(cc4Cl)nc(C)n5CCN4CCCCC4)CC3)n2)cc1
IC50 [3]: > 20 µM (inactive)

O=C(Oc1ccccc1)Oc1ccc2c(c1)oc(=O)c1ccccc12
EC50 [4]: > 79.4 µM (inactive)
EC50 [5]: 64.1 µM (not active)
EC50 [6]: > 79.4 µM (not active)

COC(=O)N1C2(C=CC1(C)C(=O)NCc1ccc(N(C)C)cc1)CCCCC2 (centres undefined)
AC50 [7]: 0.501 µM (inconclusive)

Nc1c2c(nc3ccccc13)N(c1ccccc1)CC2
EC50 [8]: 1.88 µM (active)
EC50 [9]: > 195 µM (not active)

O=C(NCCCN1CCCCC1)C1CCN(c2ncnc3c2nc2n3CCCCC2)CC1
IC50 [3]: > 20 µM (inactive)

CCOCc1cn(CC(=O)c2ccc(Cl)cc2)c(C)nc1=N
EC50 [8]: 2.99 µM (active)

CN1CCN(C2CCN(Cc3ccc(O)c4ncccc34)CC2)CC1
IC50 [10]: 5.84 µM (active)
IC50 [3]: > 20 µM (inactive)
AC50 [11]: 1.11 µM (active)

FC(F)(F)c1ccc(C2[C@H]3CN(Cc4ccc(-c5ccccc5)cc4)[C@H](c4ccccc4)C34CC2(c2ccccc2)C4)cc1 (some centres undefined)
AC50 [7]: 25.1 µM (inconclusive)

NS(=O)(=O)c1ccc(-c2ccc(/C=C3\C(=O)Nc4cc(Cl)ccc43)o2)cc1
EC50 [4]: 19.7 µM (inactive)
EC50 [5]: 9.96 µM (active)
EC50 [6]: > 26.5 µM (not active)

CCc1ccc(-c2cc(C(=O)N/N=C/c3ccccn3)[nH]n2)cc1
IC50 [3]: > 20 µM (inactive)

COC(=O)C1=C(C)N(Cc2ccccc2)[C@]23O[C@](C(=O)OC)(C(=O)N2C1c1ccccc1)C(C(=O)OC)=C3C(=O)OC (some centres undefined)
AC50 [7]: 3.16 µM (inconclusive)

CCOCCCNC(=O)c1cc2c(=O)n3cccc(C)c3nc2n1C
IC50 [12]: > 80 µM (inactive)

Cc1ccc2[nH]c3c(c2c1)CN(C(=O)CN1CCCc2ccccc21)CC3
IC50 [13]: 69.6 µM (active)

O=C1C(Cc2c[nH]c3ccccc23)NC(=S)N1Cc1ccccc1 (centres undefined)
AC50 [14]: 14.3 µM (active)

Nc1nonc1-c1noc(CCCCCN2C(=O)c3ccccc3C2=O)n1
EC50 [2]: > 10 µM (not active)
IC50 [15]: 2.74 µM (not active)

Cc1n[nH]c(C)c1CCCCOc1ccccc1
EC50 [8]: 3.76 µM (active)

COCCCn1c(SCC(=O)OC2CCCCC2)nnc1-c1ccco1
EC50 [2]: > 50 µM (not active)

Cn1c(NCc2ccccc2O)nc2ccccc21
EC50 [8]: 7.5 µM (active)

OC(COCC1CC=CCC1)Cn1cnc2ccccc21 (centres undefined)
EC50 [2]: > 50 µM (not active)
